{"source": "patent US20220282295A1", "about": "“SINGLE-CELL LEVEL CONNECTOMICS USING A DNA-SYNTHESIS BASED BARCODING SYSTEM AND METHODS OF USING THE SAME” (Northwestern University, priority 2021, published 2022)", "key": {"HEK 293T cells": {"test_system": "HEK 293T cells", "assay": "TdT-based nucleotide incorporation into hgRNA sites (DNA-synthesis based recording system, Cas9 + hgRNA + TdT) upon deoxyribonucleoside input signal", "format": "cell-based", "description": "The disclosed system has been prototyped in HEK-293T cells. A hgRNA was co-expressed with terminal deoxynucleotidyl transferase (TdT), and Cas9. The TdT was directed to the double-stranded breaks created by Cas9 at the hgRNA sites and added nucleotides in HEK 293T cells (FIG. 1B).\nHEK 293T cells were treated with an adenosine deaminase inhibitor, pentostatin (deoxycoformycin, dCF), that inhibits degradation of dAdo, resulting in an altered nucleotide pool. The added small molecules (dAdo, dGuo, dCF etc) were defined as the input signal. The percentage change in the TdT-based nucleotides incorporated into the hgRNA sites was defined as the output signal.\n(§1) Further, this system allowed for the recording of a dose response in the output signal for varying concentrations of the input signals of dAdo, dThd and dGuo (FIGS. 2A, 2B and 2C). […] None of the current genetically encoded signal recording systems^12,13 synthesize a DNA-based record in a dose response manner in mammalian cells. This salient feature of being able to synthesize a record of various NTP concentrations in the genome of cells can help in the spatial reconstruction of tightly packed together cells in tissue. Moreover, since the output signal is high (e.g. with 5 mM dThd), several lower concentrations can be distinguished, thus providing a single-cell level resolution."}, "HEK cells": {"test_system": "HEK cells", "assay": "Toxicity of input signal treatment to cells", "format": "cell-based", "conditions": "500 μM treatment", "description": "as §1"}, "[1]": {"conditions": "input signal 5 mM, HEK 293T cells, FIG. 2B"}}, "data": [{"smiles": "Nc1ncnc2c1ncn2[C@H]1C[C@H](O)[C@@H](CO)O1", "note": "[dAdo, deoxyadenosine]", "values": [{"measurement": "dose response in the output signal with each increasing concentration of input signal", "setting": "HEK 293T cells; 0 to 500 μM, except for 50 μM treatment, FIG. 2A", "result": "higher output signal"}, {"measurement": "output signal response to input signal (in words)", "setting": "HEK 293T cells; HEK 293T cells", "result": "high output signal response"}, {"measurement": "toxicity to HEK cells", "setting": "HEK cells", "result": "toxic"}]}, {"smiles": "OC[C@H]1O[C@@H](n2cnc3c2NC=NC[C@H]3O)C[C@@H]1O", "note": "[dCF, pentostatin]", "values": [{"measurement": "output signal response to input signal (in words)", "setting": "HEK 293T cells; HEK 293T cells", "result": "high output signal response"}]}, {"smiles": "Nc1nc2c(ncn2[C@H]2C[C@H](O)[C@@H](CO)O2)c(=O)[nH]1", "note": "[dGuo, deoxyguanosine]", "values": [{"measurement": "output signal response to input signal (in words)", "setting": "HEK 293T cells; HEK 293T cells", "result": "high output signal response"}]}, {"smiles": "Cc1cn([C@H]2C[C@H](O)[C@@H](CO)O2)c(=O)[nH]c1=O", "note": "[dThd, deoxythymidine]", "values": [{"measurement": "output signal (percentage change in TdT-based nucleotides incorporated into the hgRNA sites) for A", "setting": "HEK 293T cells; [1]", "result": 8, "unit": "%"}, {"measurement": "output signal (percentage change in TdT-based nucleotides incorporated into the hgRNA sites) for C", "setting": "HEK 293T cells; [1]", "result": 10, "unit": "%"}, {"measurement": "output signal (percentage change in TdT-based nucleotides incorporated into the hgRNA sites) for G", "setting": "HEK 293T cells; [1]", "result": 17.5, "unit": "%"}, {"measurement": "output signal (percentage change in TdT-based nucleotides incorporated into the hgRNA sites) for T", "setting": "HEK 293T cells; [1]", "result": 20, "unit": "%"}]}]}
